Results: patent publication US6703506B2, “Amino acid ester containing azole antifungals” (Janssen Pharmaceutica, N.V., priority 1997, dated 2004)

What was measured:
[1] = Chemical stability (open glass jar, 40° C., 75% relative humidity); assay type: physicochemical; conditions: 50 mg, after one week
Protocol: After one week, the amount of test compound remaining was determined.

[2] = test system: Aspergillus fumigatus; assay: Disseminated aspergillosis in guinea-pigs; assay type: in vivo; conditions: for CFU/g (liver): culture-positive livers post mortem; for % neg (total percentage culture-negative deep tissues): liver, spleen, kidney, lung and brain
Protocol: (§1) Specific pathogen-free (SPF) guinea-pigs (weighing 400-500 g) were used in all experiments. A catheter was placed into the left jugular vein of the animals that were treated by intravenous infusion, the vein was ligated, and the catheter was connected to a microprocessor-controlled infusion pump. The animals were infected with Aspergillus fumigatus (4,000 CFU/g body weight) or with Candida albicans (40,000 CFU/g body weight) either via the lateral vein of the penis or via the implanted catheter. Intravenous treatments (5 mg/kg/day) began 1 hour after infection. The test formulations were then administered on subsequent days as two, 1 hour infusions daily, separated by a period of 5 hours, for a total of 19 infusions or 9.5 days. Oral treatments with the test compounds (5 mg/kg/day) begun 1 hour after infection and were repeated twice daily up to the tenth day after infection (a total of 19 treatments. For each group of tested animals (number of tested animals per group given in column “N”), the mean survival time (MST) in days was recorded as well as the % survivors (% surv). Animals of each group which died during the experiment and those that survived the experiment and were killed, were investigated for counts of Aspergillus fumigatus and Candida albicans in deep tissue (liver, spleen, kidney, lung and brain) post mortem. The remaining CFU/g in the culture-positive livers was measured and expressed in table 9 (after intravenous treatment) and table 10 (after oral treatment) as mean log10 CFU/g. The columns “%neg” in tables 9 and 10 express the total percentage culture-negative deep tissues after the treatment.

[3] = test system: Candida albicans; assay: Disseminated candidosis in guinea-pigs; assay type: in vivo; conditions: for CFU/g (liver): culture-positive livers post mortem; for % neg (total percentage culture-negative deep tissues): liver, spleen, kidney, lung and brain
Protocol: as §1

[4] = test system: Microsporum canis; assay: Determination of fungal susceptibility (MIC); assay type: cell-based; conditions: CYG medium, 5 days at 30° C., growth to 35% of control or less
Protocol: (§2) A panel of Candida isolates plus single isolates of the dermatophytes Microsporum canis, Trichophyton rubrum and T. mentagrophytes; Aspergillus fumigates, and Cryptococcus neoformans were used to evaluate the activity of the test compounds in vitro. Inocula were prepared as broth cultures (yeasts) or as suspensions of fungal material made from agar slope cultures (moulds). The test compounds were pipetted from DMSO stock solution into water to provide a series of 10-fold dilutions. The fungal inocula were suspended in the growth medium CYG (F. C. Odds, Journal of Clinical Microbiology, 29, (2735-2740, 1991) at approximately 50,000 colony-forming units (CFU) per ml and added to the aqueous test drugs. The cultures were set up in the 96 wells of plastic microdilution plates and they were incubated for 2 days at 37° C. (Candida spp.) or for 5 days at 30° C. (other fungi). Growth in the microcultures was measured by their optical density (OD) measured at a wavelength of 405 nm. The OD for cultures with test compounds was calculated as a percentage of the control, drug-free OD. Inhibition of growth to 35% of control or less was recorded as significant inhibition.
(§3) Minimal inhibitory concentration (MICs; in 10^−6 M) of intermediate 2 as the major metabolite and some of the compounds of formula (I) for Candida glabrata, Candida krusel, Candida parapsilosis, Candida albicans, Candida kefyr, Candida tropicalis, Microsporum canis, Trichophyton rubrum, Trichophyton mentagrophytes, Cryptococcus neoformans, Aspergillus fumigatus are listed in table 8.

[5] = test system: Aspergillus fumigatus; assay: Determination of fungal susceptibility (MIC); assay type: cell-based; conditions: CYG medium, 5 days at 30° C., growth to 35% of control or less
Protocol: as §2, §3

[6] = test system: Candida glabrata; assay: Determination of fungal susceptibility (MIC); assay type: cell-based; conditions: CYG medium, 2 days at 37° C., growth to 35% of control or less
Protocol: as §2, §3

[7] = test system: Trichophyton mentagrophytes; assay: Determination of fungal susceptibility (MIC); assay type: cell-based; conditions: CYG medium, 5 days at 30° C., growth to 35% of control or less
Protocol: as §2, §3

[8] = test system: Candida albicans; assay: Determination of fungal susceptibility (MIC); assay type: cell-based; conditions: CYG medium, 2 days at 37° C., growth to 35% of control or less
Protocol: as §2, §3

[9] = test system: Candida parapsilosis; assay: Determination of fungal susceptibility (MIC); assay type: cell-based; conditions: CYG medium, 2 days at 37° C., growth to 35% of control or less
Protocol: as §2, §3

[10] = test system: Candida krusei; assay: Determination of fungal susceptibility (MIC); assay type: cell-based; conditions: CYG medium, 2 days at 37° C., growth to 35% of control or less
Protocol: as §2, §3

[11] = test system: Trichophyton rubrum; assay: Determination of fungal susceptibility (MIC); assay type: cell-based; conditions: CYG medium, 5 days at 30° C., growth to 35% of control or less
Protocol: as §2, §3

[12] = test system: Cryptococcus neoformans; assay: Determination of fungal susceptibility (MIC); assay type: cell-based; conditions: CYG medium, 5 days at 30° C., growth to 35% of control or less
Protocol: as §2, §3

[13] = test system: Candida kefyr; assay: Determination of fungal susceptibility (MIC); assay type: cell-based; conditions: CYG medium, 2 days at 37° C., growth to 35% of control or less
Protocol: as §2, §3

[14] = test system: Candida tropicalis; assay: Determination of fungal susceptibility (MIC); assay type: cell-based; conditions: CYG medium, 2 days at 37° C., growth to 35% of control or less
Protocol: as §2, §3

[15] = i.v. treatment 5 mg/kg/day, 19 infusions, 9.5 days
[16] = oral treatment 5 mg/kg/day, twice daily, 19 treatments

Compound	Stability (amount of test compound remaining) [1] [%]	MIC [4]	MIC [5]	MIC [6]	MIC [7]	MIC [8]	MIC [9]	MIC [10]	MIC [11]	MIC [12]	MIC [13]	MIC [14]	other results
C[C@H](OC(=O)CCN)[C@H](C)n1ncn(-c2ccc(N3CCN(c4ccc(OC[C@@H]5CO[C@@](Cn6cncn6)(c6ccc(F)cc6F)O5)cc4)CC3)cc2)c1=O.O.O=C(O)C[C@H](O)C(=O)O.O=C(O)C[C@H](O)C(=O)O (relative stereo) [Compound 12, [2S-[2α,4α-[(R*,R*)]]]-2-[4-[4-[4-[4-[[2-(2,4-difluorophenyl)-2-(1H-1,2,4-triazol-1-ylmethyl)-1,3-dioxolan-4-yl]methoxy]phenyl]-1-piperazinyl]phenyl]-4,5-dihydro-5-oxo-1H-1,2,4-triazol-1-yl]-1-methylpropyl β-alanine (S)-hydroxybutanedioate(1:2) monohydrate]	96.1	–	–	–	–	–	–	–	–	–	–	–	–
CC(N)C(=O)OC(C)C(C)n1ncn(-c2ccc(N3CCN(c4ccc(OCC5COC(Cn6cncn6)(c6ccc(F)cc6F)O5)cc4)CC3)cc2)c1=O.O.O=C(O)CCC(=O)O (centres unmarked) [Compound 10]	31.0	–	–	–	–	–	–	–	–	–	–	–	–
CC(OC(=O)CCN)C(C)n1ncn(-c2ccc(N3CCN(c4ccc(OCC5COC(Cn6cncn6)(c6ccc(F)cc6F)O5)cc4)CC3)cc2)c1=O.O.O=C(O)C(=O)O (centres unmarked) [Compound 13]	98.3	–	–	–	–	–	–	–	–	–	–	–	–
CCN(CC)CCC(=O)OC(C)C(C)n1ncn(-c2ccc(N3CCN(c4ccc(OCC5COC(Cn6cncn6)(c6ccc(F)cc6F)O5)cc4)CC3)cc2)c1=O.O.O=C(O)C=CC(=O)O (centres unmarked) [Compound 15]	90.4	–	–	–	–	–	–	–	–	–	–	–	–
CCN(CC)CC(=O)OC(C)C(C)n1ncn(-c2ccc(N3CCN(c4ccc(OCC5COC(Cn6cncn6)(c6ccc(F)cc6F)O5)cc4)CC3)cc2)c1=O.O=C(O)C=CC(=O)O (stereo not drawn) [Compound 16, [2S-[2α,4α-[(R*,R*)]]]-2-[4-[4-[4-[4-[[2-(2,4-difluorophenyl)-2-(1H-1,2,4-triazol-1-ylmethyl)-1,3-dioxolan-4-yl]methoxy]phenyl]-1-piperazinyl]phenyl]-4,5-dihydro-5-oxo-1H-1,2,4-triazol-1-yl]-1-methylpropyl N,N-diethylglycine (E)-2-butenedioate]	100.3	1 10^−6 M	1 10^−6 M	10 10^−6 M	1 10^−6 M	<0.1 10^−6 M	<0.1 10^−6 M	1 10^−6 M	<0.1 10^−6 M	1 10^−6 M	<0.1 10^−6 M	<0.1 10^−6 M	CFU/g (liver) ([2]; i.v. treatment 5 mg/kg/day): 3.4 mean log10 CFU/g; CFU/g (liver) ([2]; oral treatment 5 mg/kg/day): 3.1 mean log10 CFU/g; % surv (% survivors) [2, 15]: 16.7%; MST (mean survival time) [2, 15]: 6.8 days; % neg (total percentage culture-negative deep tissues) ([2]; i.v. treatment 5 mg/kg/day): 29%; % neg (total percentage culture-negative deep tissues) ([2]; oral treatment 5 mg/kg/day): 48%; % surv (% survivors) [2, 16]: 40%; MST (mean survival time) [2, 16]: 6.5 days; CFU/g (liver) ([3]; i.v. treatment 5 mg/kg/day): 0 mean log10 CFU/g; CFU/g (liver) ([3]; oral treatment 5 mg/kg/day): 0 mean log10 CFU/g; % surv (% survivors) [3, 15]: 66.7%; MST (mean survival time) [3, 15]: 9.3 days; % neg (total percentage culture-negative deep tissues) ([3]; i.v. treatment 5 mg/kg/day): 79%; % neg (total percentage culture-negative deep tissues) ([3]; oral treatment 5 mg/kg/day): 73%; % surv (% survivors) [3, 16]: 90%; MST (mean survival time) [3, 16]: 9.6 days
CC(C)C(N)C(=O)OC(C)C(C)n1ncn(-c2ccc(N3CCN(c4ccc(OCC5COC(Cn6cncn6)(c6ccc(F)cc6F)O5)cc4)CC3)cc2)c1=O (centres unmarked) [Compound 18]	101.7	10 10^−6 M	1 10^−6 M	10 10^−6 M	1 10^−6 M	<0.1 10^−6 M	<0.1 10^−6 M	1 10^−6 M	10 10^−6 M	1 10^−6 M	<0.1 10^−6 M	<0.1 10^−6 M	CFU/g (liver) ([2]; i.v. treatment 5 mg/kg/day): 3.1 mean log10 CFU/g; CFU/g (liver) ([2]; oral treatment 5 mg/kg/day): 3.2 mean log10 CFU/g; % surv (% survivors) [2, 15]: 16.7%; MST (mean survival time) [2, 15]: 5.3 days; % neg (total percentage culture-negative deep tissues) ([2]; i.v. treatment 5 mg/kg/day): 29%; % neg (total percentage culture-negative deep tissues) ([2]; oral treatment 5 mg/kg/day): 20%; % surv (% survivors) [2, 16]: 0%; MST (mean survival time) [2, 16]: 5.2 days; CFU/g (liver) ([3]; i.v. treatment 5 mg/kg/day): 0 mean log10 CFU/g; CFU/g (liver) ([3]; oral treatment 5 mg/kg/day): 0 mean log10 CFU/g; % surv (% survivors) [3, 15]: 66.7%; MST (mean survival time) [3, 15]: 9.2 days; % neg (total percentage culture-negative deep tissues) ([3]; i.v. treatment 5 mg/kg/day): 92%; % neg (total percentage culture-negative deep tissues) ([3]; oral treatment 5 mg/kg/day): 68%; % surv (% survivors) [3, 16]: 100%; MST (mean survival time) [3, 16]: 10 days
[2S-[2α,4α[(R*,R*)]]]-4-[4-[4-[4-[[2-(2,4-difluorophenyl)-2-(1H-1,2,4-triazol-1-ylmethyl)-1,3-dioxolan-4-yl]methoxy]-phenyl]-1-piperazinyl]phenyl]-2,4-dihydro-2-(2-hydroxy-1-methylpropyl)-3H-1,2,4-triazol-3-one [Interm. 2a]	–	1 10^−6 M	1 10^−6 M	10 10^−6 M	1 10^−6 M	10 10^−6 M	1 10^−6 M	1 10^−6 M	1 10^−6 M	1 10^−6 M	<0.1 10^−6 M	1 10^−6 M	–
